Experimental findings from US12624018B1, “Inhibitors of RIPK2 and medical uses thereof” (Odyssey Therapeutics, Inc., priority 2022, dated 2026) are described below.

pIC50: −log10 of the molar value.

T1 sequence (O43353 1-299 limits assumed): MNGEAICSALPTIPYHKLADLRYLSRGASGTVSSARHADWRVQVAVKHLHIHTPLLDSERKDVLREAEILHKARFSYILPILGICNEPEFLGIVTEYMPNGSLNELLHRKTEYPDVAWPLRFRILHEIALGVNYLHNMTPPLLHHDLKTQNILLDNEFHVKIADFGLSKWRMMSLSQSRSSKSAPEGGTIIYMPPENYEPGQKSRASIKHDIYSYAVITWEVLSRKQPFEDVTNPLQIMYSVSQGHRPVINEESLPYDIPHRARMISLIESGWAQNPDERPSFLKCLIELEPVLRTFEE

The first experiment concerns the target T1, RIPK2 enzyme (Homo sapiens, UniProt O43353).
T1 construct: purchased Carna 09-128
Briefly: RIPK2 inhibition (ADP-Glo Kinase Assay). The experiment is classed as biochemical. As to conditions: RIPK2 5 nM, ATP 150 μM, MBP substrate, read-out: RIPK2 IC50. Summed up:
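Swine MBP substrate; compound and 5 nM RIPK2 first mixed for 30 min at room temperature; buffer pH 7.5 HEPES 50 mM with 10 mM MgCl2, 2 mM DTT, 1 mM EGTA, Brij-35, BSA.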
For orientation: pIC50 means −log10 of the IC50, conventionally taken in molar units. With `Cc1c(Oc2ccnc3ccc(C(=O)N4CC(F)C4)cc23)ccc(CC(=O)Nc2cnn(C(C)(C)C)c2)c1F` [Compound 345, N-(1-(tert-butyl)-1H-pyrazol-4-yl)-2-(2-fluoro-4-((6-(3-fluoro-azetidine-1-carbonyl)quinolin-4-yl)oxy)-3-methylphenyl) acetamide], the pIC50 was greater than 8.60.

For `Cc1c(Oc2ccnc3ccc(C(=O)N4CC(C#N)C4)cc23)ccc(CC(=O)Nc2cnn(C(C)(C)C)c2)c1F` [Compound 346, N-(1-(tert-butyl)-1H-pyrazol-4-yl)-2-(4-((6-(3-cyano-azetidine-1-carbonyl)quinolin-4-yl)oxy)-2-fluoro-3-methylphenyl) acetamide], the pIC50 was greater than 8.60.

With `Cc1c(Oc2ccnc3ccc(C(=O)N4CC5(COC5)C4)cc23)ccc(CC(=O)Nc2cnn(C(C)(C)C)c2)c1F` [Compound 347, 2-(4-((6-(2-oxa-6-azaspiro[3.3]heptane-6-carbonyl)quinolin-4-yl)oxy)-2-fluoro-3-methyl-phenyl)-N-(1-(tert-butyl)-1H-pyrazol-4-yl)acetamide], the negative-log IC50 (pIC50) was greater than 8.60.

Turning to `Cc1c(Oc2ccnc3ccc(C(=O)N4CC(O)C4)cc23)ccc(CC(=O)Nc2cnn(C(C)(C)C)c2)c1F` [Compound 348, N-(1-(tert-butyl)-1H-pyrazol-4-yl)-2-(2-fluoro-4-((6-(3-hydroxy-azetidine-1-carbonyl)quinolin-4-yl)oxy)-3-methyl-phenyl) acetamide], the negative logarithm of the IC50 (pIC50) was greater than 8.60.

As for `Cc1c(Oc2ccnc3ccc(C(=O)N4CC(N)C4)cc23)ccc(CC(=O)Nc2cnn(C(C)(C)C)c2)c1F` [Compound 349, 2-(4-((6-(3-amino-azetidine-1-carbonyl)quinolin-4-yl)oxy)-2-fluoro-3-methyl-phenyl)-N-(1-(tert-butyl)-1H-pyrazol-4-yl)acetamide], the negative logarithm of the IC50 (pIC50) is greater than 8.60.

Turning to `Cc1c(Oc2ccnc3ccc(C(=O)N4CCCC4)cc23)ccc(CC(=O)Nc2cnn(C(C)(C)C)c2)c1F` [Compound 350, N-(1-(tert-butyl)-1H-pyrazol-4-yl)-2-(2-fluoro-3-methyl-4-((6-(pyrrolidine-1-carbonyl)quinolin-4-yl)oxy)phenyl) acetamide], the negative logarithm of the IC50 (pIC50) was greater than 8.60.

As to `Cc1c(Oc2ccnc3ccc(C(=O)N4CCOCC4)cc23)ccc(CC(=O)Nc2cnn(C(C)(C)C)c2)c1F` [Compound 355, N-(1-(tert-butyl)-1H-pyrazol-4-yl)-2-(2-fluoro-3-methyl-4-((6-(morpholine-4-carbonyl)quinolin-4-yl)oxy)phenyl) acetamide], the pIC50 is greater than 8.60.

Take `Cc1c(Oc2ccnc3ccc(C(=O)N4CCNCC4)cc23)ccc(CC(=O)Nc2cnn(C(C)(C)C)c2)c1F` [Compound 356, N-(1-(tert-butyl)-1H-pyrazol-4-yl)-2-(2-fluoro-3-methyl-4-((6-(piperazine-1-carbonyl)quinolin-4-yl)oxy)phenyl) acetamide]: the pIC50 is greater than 8.60.

On to `Cc1c(Oc2ccnc3ccc(C(=O)N4CCC(O)CC4)cc23)ccc(CC(=O)Nc2cnn(C(C)(C)C)c2)c1F` [Compound 357, N-(1-(tert-butyl)-1H-pyrazol-4-yl)-2-(2-fluoro-4-((6-(4-hydroxy-piperidine-1-carbonyl)quinolin-4-yl)oxy)-3-methyl-phenyl) acetamide], for which the pIC50 is greater than 8.60.

As to `Cc1cc(CC(=O)Nc2cnn(C(C)(C)C)c2)c(F)cc1Oc1ccnc2ccc(C(=O)O)cc12` [Compound 358, 4-(4-(2-((1-(tert-butyl)-1H-pyrazol-4-yl)amino)-2-oxoethyl)-5-fluoro-2-methyl-phenoxy) quinoline-6-carboxylic acid], the pIC50 is greater than 8.60.

For `Cc1cc(CC(=O)Nc2cnn(C(C)(C)C)c2)c(F)cc1Oc1ccnc2ccc(C(=O)N(C)C)cc12` [Compound 361, 4-(4-(2-((1-(tert-butyl)-1H-pyrazol-4-yl)amino)-2-oxoethyl)-5-fluoro-2-methyl-phenoxy)-N,N-dimethyl-quinoline-6-carboxamide], the negative-log IC50 (pIC50) was greater than 8.60.

Take `Cc1cc(CC(=O)Nc2cnn(C(C)(C)C)c2)c(F)cc1Oc1ccnc2ccc(C(=O)NCC(F)(F)F)cc12` [Compound 362, 4-(4-(2-((1-(tert-butyl)-1H-pyrazol-4-yl)amino)-2-oxoethyl)-5-fluoro-2-methyl-phenoxy)-N-(2,2,2-trifluoroethyl) quinoline-6-carboxamide]: the pIC50 is greater than 8.60.

Consider `CCNC(=O)c1ccc2nccc(Oc3cc(F)c(CC(=O)Nc4cnn(C(C)(C)C)c4)cc3C)c2c1` [Compound 363, 4-(4-(2-((1-(tert-butyl)-1H-pyrazol-4-yl)amino)-2-oxoethyl)-5-fluoro-2-methyl-phenoxy)-N-ethyl-quinoline-6-carboxamide], for which the negative-log IC50 (pIC50) is greater than 8.60.

For the compound `Cc1cc(CC(=O)Nc2cnn(C(C)(C)C)c2)c(F)cc1Oc1ccnc2ccc(C(=O)NCCO)cc12` [Compound 364, 4-(4-(2-((1-(tert-butyl)-1H-pyrazol-4-yl)amino)-2-oxoethyl)-5-fluoro-2-methyl-phenoxy)-N-(2-hydroxy-ethyl) quinoline-6-carboxamide], the negative-log IC50 (pIC50) was greater than 8.60.

Regarding `Cc1cc(CC(=O)Nc2cnn(C(C)(C)C)c2)c(F)cc1Oc1ccnc2ccc(C(=O)N(C)CCO)cc12` [Compound 365, 4-(4-(2-((1-(tert-butyl)-1H-pyrazol-4-yl)amino)-2-oxoethyl)-5-fluoro-2-methyl-phenoxy)-N-(2-hydroxy-ethyl)-N-methyl-quinoline-6-carboxamide], the pIC50 is greater than 8.60.

Consider `Cc1cc(CC(=O)Nc2cnn(C(C)(C)C)c2)c(F)cc1Oc1ccnc2ccc(C(=O)N(CCO)CCO)cc12` [Compound 366, 4-(4-(2-((1-(tert-butyl)-1H-pyrazol-4-yl)amino)-2-oxoethyl)-5-fluoro-2-methyl-phenoxy)-N,N-bis(2-hydroxyethyl) quinoline-6-carboxamide], for which the pIC50 is greater than 8.60.

As for `COCCNC(=O)c1ccc2nccc(Oc3cc(F)c(CC(=O)Nc4cnn(C(C)(C)C)c4)cc3C)c2c1` [Compound 367, 4-(4-(2-((1-(tert-butyl)-1H-pyrazol-4-yl)amino)-2-oxoethyl)-5-fluoro-2-methyl-phenoxy)-N-(2-methoxy-ethyl) quinoline-6-carboxamide], the pIC50 was greater than 8.60.

As to `Cc1cc(CC(=O)Nc2cnn(C(C)(C)C)c2)c(F)cc1Oc1ccnc2ccc(C(=O)N3CCC3)cc12` [Compound 369, 2-(4-((6-(azetidine-1-carbonyl)quinolin-4-yl)oxy)-2-fluoro-5-methyl-phenyl)-N-(1-(tert-butyl)-1H-pyrazol-4-yl)acetamide], the pIC50 was greater than 8.60.

Take `Cc1cc(CC(=O)Nc2cnn(C(C)(C)C)c2)c(F)cc1Oc1ccnc2ccc(C(=O)N3CC(F)C3)cc12` [Compound 370, N-(1-(tert-butyl)-1H-pyrazol-4-yl)-2-(2-fluoro-4-((6-(3-fluoro-azetidine-1-carbonyl)quinolin-4-yl)oxy)-5-methyl-phenyl) acetamide]: the negative logarithm of the IC50 (pIC50) was greater than 8.60.

Staying with this experiment, now noted: RIPK2 IC50 (nM), RIPK2 5 nM, ATP 150 μM, MBP substrate.
The IC50 is the midpoint of a concentration-inhibition curve. Consider `COCCN(C)C(=O)c1ccc2nccc(Oc3cc(F)c(CC(=O)Nc4cnn(C(C)(C)C)c4)cc3C)c2c1` [Compound 368, 4-(4-(2-((1-(tert-butyl)-1H-pyrazol-4-yl)amino)-2-oxoethyl)-5-fluoro-2-methyl-phenoxy)-N-(2-methoxy-ethyl)-N-methyl-quinoline-6-carboxamide], for which the IC50 was less than 2.5 nM.
